Results from paper PMC6331912, “7-Methoxytacrine-p-Anisidine Hybrids as Novel Dual Binding Site Acetylcholinesterase Inhibitors for Alzheimer’s Disease Treatment” (Molecules, 2015).

Experiments:
Type in all cases: biochemical
[1] = target: T1, human recombinant acetylcholinesterase (hAChE) (Homo sapiens, UniProt P22303); experiment: biochemical; conditions: for IC50: mean of at least three experiments, substrate ATCh, pH 7.4, 37 °C, read-out: hAChE IC50 ± SEM; for Selectivity for hAChE: ratio hBChE IC50/hAChE IC50; for fold weaker inhibitor of hAChE compared to tacrine: ratio of IC50 to tacrine
T1 construct: purchased Sigma-Aldrich (Prague, Czech Republic)

[2] = target: human plasma butyrylcholinesterase (hBChE) (Homo sapiens, UniProt P06276); experiment: biochemical; conditions: for IC50: mean of at least three experiments, substrate BTCh, pH 7.4, 37 °C, read-out: hBChE IC50 ± SEM; for fold weaker inhibitor of hBChE related to tacrine: ratio of IC50 to tacrine
AChE = target: T2, AChE (Homo sapiens, UniProt P22303); experiment: Kinetic study of AChE inhibition (Ellman's method, nonlinear regression, Lineweaver-Burk); conditions: for Ki: estimated by nonlinear regression analysis, substrate ATCh; for type of inhibition: p < 0.05, apparent Vmax decreased, Km unchanged with increasing inhibitor concentration
T2 construct: purchased Sigma-Aldrich (Prague, Czech Republic)
Procedure: […]. We used a kinetic assay in order to obtain information about the mode of inhibition and binding site of the target compounds. The mechanism of inhibition was analyzed by recording substrate concentration—enzymatic reaction rate curves in the presence of different concentrations of compounds 15 and 19. Analysis confirmed a non-competitive type of inhibition (p < 0.05) for both compounds. With increasing concentration of inhibitor, apparent Vmax decreased and Km remained unchanged. […] […]. Such a pattern of inhibition is also characteristic for donepezil and it may indicate prevailing interactions of the enzyme with PAS [36]. PAS of AChE is associated with the ability to induce Aβ aggregation, thus, compounds interacting with this region may inhibit such a process and could have additional benefit for the treatment of AD [37].
Figure 3 Steady-state inhibition of AChE hydrolysis of acetylthiocholine (ATCh) by compounds 15 and 19. […]. Lines were derived from a weighted least-squares analysis of data.
The kinetic study of AChE inhibition was performed by using Ellman’s method (described above). The type of inhibition was elucidated from the nonlinear regression analysis. Results for each type model of inhibition (competitive, noncompetitive, uncompetitive and mixed) were compared with sum-of-squares F-test. […]. Linear regression was used for calculation of Lineweaver-Burk plots. All calculations were performed using the GraphPad Prism software.

human plasma butyrylcholinesterase (hBChE), sequence (P06276 29-602): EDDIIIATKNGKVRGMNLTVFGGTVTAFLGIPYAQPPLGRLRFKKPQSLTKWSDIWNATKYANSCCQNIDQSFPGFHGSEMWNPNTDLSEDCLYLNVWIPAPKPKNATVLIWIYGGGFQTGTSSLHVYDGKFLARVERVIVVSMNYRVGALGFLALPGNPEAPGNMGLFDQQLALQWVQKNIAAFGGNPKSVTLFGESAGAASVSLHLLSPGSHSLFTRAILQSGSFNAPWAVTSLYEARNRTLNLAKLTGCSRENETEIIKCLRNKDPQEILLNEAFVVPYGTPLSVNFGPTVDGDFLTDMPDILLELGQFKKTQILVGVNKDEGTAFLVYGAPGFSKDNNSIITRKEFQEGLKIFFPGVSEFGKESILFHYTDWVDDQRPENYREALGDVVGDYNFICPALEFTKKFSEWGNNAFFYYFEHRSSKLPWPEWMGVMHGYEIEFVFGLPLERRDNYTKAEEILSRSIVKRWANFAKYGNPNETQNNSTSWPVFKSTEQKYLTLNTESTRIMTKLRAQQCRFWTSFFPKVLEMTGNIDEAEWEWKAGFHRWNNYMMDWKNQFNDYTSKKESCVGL
T1 sequence (P22303 32-614): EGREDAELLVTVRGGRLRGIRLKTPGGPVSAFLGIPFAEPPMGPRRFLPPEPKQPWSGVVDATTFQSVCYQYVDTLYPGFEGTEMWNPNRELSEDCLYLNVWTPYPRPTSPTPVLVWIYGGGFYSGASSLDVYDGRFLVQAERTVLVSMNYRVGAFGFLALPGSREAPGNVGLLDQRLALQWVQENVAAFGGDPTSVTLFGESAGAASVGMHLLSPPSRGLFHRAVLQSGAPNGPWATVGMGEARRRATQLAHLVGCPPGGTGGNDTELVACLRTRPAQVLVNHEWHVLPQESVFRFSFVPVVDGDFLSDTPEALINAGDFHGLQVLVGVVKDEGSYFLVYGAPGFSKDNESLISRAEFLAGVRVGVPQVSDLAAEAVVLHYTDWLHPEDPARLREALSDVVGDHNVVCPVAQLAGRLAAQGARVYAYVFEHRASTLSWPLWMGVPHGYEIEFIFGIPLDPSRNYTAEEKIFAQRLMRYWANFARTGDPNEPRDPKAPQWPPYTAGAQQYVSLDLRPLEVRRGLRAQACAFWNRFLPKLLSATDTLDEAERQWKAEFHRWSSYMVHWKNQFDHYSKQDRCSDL
T2 sequence (P22303 32-614): as above

SMILES | IC50 [1] [µM] | Selectivity for hAChE [1] | IC50 [2] [µM] | fold weaker inhibitor of hBChE related to tacrine [2] [fold] | fold weaker inhibitor of hAChE compared to tacrine [1] [fold] | Ki (AChE) [µM] | type of inhibition (AChE)
COc1ccc(NC(=S)NCCCCCCNc2c3c(nc4ccc(OC)cc24)CCCC3)cc1.O=C(O)C(O)C(O)C(=O)O [compound 13, 3-{6-[(7-Methoxy-1,2,3,4-tetrahydroacridin-9-yl)amino]hexyl}-1-(4-methoxyphenyl)thiourea-2,3‑dihydroxy-succinate] | 10.3 ± 1.3 | 0.90 | 9.35 ± 0.1 |  |  |  | 
COc1ccc(NC(=S)NCCCCCNc2c3c(nc4ccc(OC)cc24)CCCC3)cc1.O=C(O)C(O)C(O)C(=O)O [compound 12, 3-{5-[(7-Methoxy-1,2,3,4-tetrahydroacridin-9-yl)amino]pentyl}-1-(4-methoxyphenyl)thiourea-2,3‑dihydroxy-succinate] | 4.9 ± 0.3 | 2.71 | 13.5 ± 0.7 |  |  |  | 
COc1ccc(NC(=S)NCCCNc2c3c(nc4ccc(OC)cc24)CCCC3)cc1.O=C(O)C(O)C(O)C(=O)O [compound 10, 3-{3-[(7-Methoxy-1,2,3,4-tetrahydroacridin-9-yl)amino]propyl}-1-(4-methoxyphenyl)thiourea-2,3‑dihydroxy-succinate] | 6.36 ± 0.5 | 1.37 | 8.73 ± 0.1 |  |  |  | 
COc1ccc(NC(=O)NCCCCCCCCNc2c3c(nc4ccc(OC)cc24)CCCC3)cc1.O=C(O)C(O)C(O)C(=O)O [compound 22, 3-{8-[(7-Methoxy-1,2,3,4-tetrahydroacridin-9-yl)amino]octyl}-1-(4-methoxyphenyl)urea-2,3‑dihydroxy-succinate] | 2.14 ± 0.6 | 0.63 | 1.34 ± 0.2 | 16.8 |  |  | 
COc1ccc(NC(=O)NCCNc2c3c(nc4ccc(OC)cc24)CCCC3)cc1.O=C(O)C(O)C(O)C(=O)O [compound 16, 3-{2-[(7-Methoxy-1,2,3,4-tetrahydroacridin-9-yl)amino]ethyl}-1-(4-methoxyphenyl)urea-2,3‑dihydroxy-succinate] | 44.9 ± 1.4 | 0.27 | 11.9 ± 2.3 |  |  |  | 
COc1ccc(NC(=S)NCCCCCCCNc2c3c(nc4ccc(OC)cc24)CCCC3)cc1.O=C(O)C(O)C(O)C(=O)O [compound 14, 3-{7-[(7-Methoxy-1,2,3,4-tetrahydroacridin-9-yl)amino]heptyl}-1-(4-methoxyphenyl)thiourea-2,3‑dihydroxy-succinate] | 3.96 ± 0.1 | 0.79 | 3.13 ± 0.3 |  |  |  | 
COc1ccc(NC(=O)NCCCCCCCNc2c3c(nc4ccc(OC)cc24)CCCC3)cc1.O=C(O)C(O)C(O)C(=O)O [compound 21, 3-{7-[(7-Methoxy-1,2,3,4-tetrahydroacridin-9-yl)amino]heptyl}-1-(4-methoxyphenyl)urea-2,3‑dihydroxy-succinate] | 1.72 ± 0.3 | 0.98 | 1.69 ± 0.2 |  |  |  | 
COc1ccc(NC(=S)NCCCCNc2c3c(nc4ccc(OC)cc24)CCCC3)cc1.O=C(O)C(O)C(O)C(=O)O [compound 11, 3-{4-[(7-Methoxy-1,2,3,4-tetrahydroacridin-9-yl)amino]butyl}-1-(4-methoxyphenyl)thiourea-2,3‑dihydroxy-succinate] | 32.8 ± 9.9 | 0.18 | 6.04 ± 0.1 |  |  |  | 
COc1ccc(NC(=O)NCCCNc2c3c(nc4ccc(OC)cc24)CCCC3)cc1.O=C(O)C(O)C(O)C(=O)O [compound 17, 3-{3-[(7-Methoxy-1,2,3,4-tetrahydroacridin-9-yl)amino]propyl}-1-(4-methoxyphenyl)urea-2,3‑dihydroxy-succinate] | 26.9 ± 5.9 | 0.59 | 15.9 ± 4.1 |  |  |  | 
COc1ccc(NC(=O)NCCCCCCNc2c3c(nc4ccc(OC)cc24)CCCC3)cc1.O=C(O)C(O)C(O)C(=O)O [compound 20, 3-{6-[(7-Methoxy-1,2,3,4-tetrahydroacridin-9-yl)amino]hexyl}-1-(4-methoxyphenyl)urea-2,3‑dihydroxy-succinate] | 4.56 ± 0.9 | 1.26 | 5.75 ± 0.4 |  |  |  | 
COc1ccc(NC(=S)NCCCCCCCCNc2c3c(nc4ccc(OC)cc24)CCCC3)cc1.O=C(O)C(O)C(O)C(=O)O [compound 15, 3-{8-[(7-Methoxy-1,2,3,4-tetrahydroacridin-9-yl)amino]octyl}-1-(4-methoxyphenyl)thiourea-2,3‑dihydroxy-succinate] | 1.36 ± 0.4 | 7.53 | 10.2 ± 4.7 |  | 4.2 | 1.33 ± 0.125 | non-competitive
COc1ccc(NC(=O)NCCCCCNc2c3c(nc4ccc(OC)cc24)CCCC3)cc1.O=C(O)C(O)C(O)C(=O)O [compound 19, 3-{5-[(7-Methoxy-1,2,3,4-tetrahydroacridin-9-yl)amino]pentyl}-1-(4-methoxyphenyl)urea-2,3‑dihydroxy-succinate] | 1.35 ± 0.3 | 8.07 | 10.9 ± 1.6 |  | 4.2 | 0.453 ± 0.0251 | non-competitive
COc1ccc(NC(=S)NCCNc2c3c(nc4ccc(OC)cc24)CCCC3)cc1.O=C(O)C(O)C(O)C(=O)O [compound 9, 3-{2-[(7-Methoxy-1,2,3,4-tetrahydroacridin-9-yl)amino]ethyl}-1-(4-methoxyphenyl)thiourea-2,3‑dihydroxy-succinate] | 43.6 ± 2.1 | 0.02 | 1.03 ± 0.1 | 12.9 |  |  | 
COc1ccc(NC(=O)NCCCCNc2c3c(nc4ccc(OC)cc24)CCCC3)cc1.O=C(O)C(O)C(O)C(=O)O [compound 18, 3-{4-[(7-Methoxy-1,2,3,4-tetrahydroacridin-9-yl)amino]butyl}-1-(4-methoxyphenyl)urea-2,3‑dihydroxy-succinate] | 13.8 ± 3.9 | 0.68 | 9.34 ± 0.1 |  |  |  | 
